According to patent publication US7750043B2, “Modified retinoid compounds and their uses” (Wisconsin Alumni Research Foundation, priority 2003, dated 2010):
Entries after “also recorded” stand apart in the source; their conditions may differ.

Key:
[1] = tested on: vitamin A-deficient rats; assay: Growth of vitamin A-deficient rats given the compounds orally in Wesson oil; type: in vivo, rat; details: for growth of vitamin A-deficient rats, comparison between atRA and its esters / growth of vitamin A-deficient rats compared to vehicle control: 83 pmole/day, FIG. 4; for growth of vitamin A-deficient rats, comparison between atRA and its esters / growth of vitamin A-deficient rats compared to vehicle control / growth (weight change) of vitamin A-deficient rats compared to atRA / growth response of vitamin A-deficient rats compared to atRA: 5 days; for in vivo activity relative to atRA (growth support): oral, vitamin A-deficient rats, overall estimate; for growth (weight change) of vitamin A-deficient rats compared to atRA: 83 pmoles/day oral in Wesson oil, FIG. 1; for growth response of vitamin A-deficient rats compared to atRA: 166 pmoles/day (50 μg/day atRA or 59.5 μg/day t-butyl-RA), FIG. 2
Excerpt: The first test was to determine if the esterified compounds when given orally could restore normal growth of vitamin A-deficient rats. For this study, Sprague-Dawley, weanling rats were obtained from Harlan (Indianapolis, Ind.). They were fed the purified vitamin A-deficient diet previously described (Suda et al., 1970, J. Nutr. 100:1049-152) supplemented with vitamins D, E and K (White et al., 1998, Proc. Natl. Acad. Sci. USA 95:13459-13464). When the animals stopped growing and began to lose weight, they were administered the indicated doses per day dissolved in Wesson oil. Controls were given the Wesson oil alone (vehicle group). The weight change over the 5-day study period was analyzed by ANOVA, followed by a matrix of pairwise comparison probabilities using four post-hoc tests when the overall P value was less than 0.05. The post-hoc comparison tests included: Turkey HSD multiple comparisons, Sheffe test, Fisher's least-significant-difference test and the Bonferroni adjustment test.
Weanling male rats were obtained from the Harlan Company and were housed individually in hanging wire cages and fed the vitamin A-deficient diet described previously (Suda et al., 1970). At approximately 70 days of age, the animals began to show a leveling off of growth and began to show weight loss. At this time, they were used for the following studies: They were given either 0.1 ml of Wesson oil (vehicle) or the indicated dose of atRA dissolved in the vehicle or one of the derivatives at the indicated dose dissolved in the vehicle. Body weights were recorded daily and plotted as cumulative weight gain or loss over the study period as indicated on the graphs. A daily dose of 83 pmoles (25 μg/day) of atRA is near the minimum amount needed to produce normal growth in […] rats as compared to the vehicle controls that continue to lose weight (FIG. 1). […] When the dose was increased to 50 μg/day of atRA or 59.5 μg/day of the t-butyl derivative, as expected, the growth response was identical.

[2] = tested on: normal male rats; assay: Acute toxicity of atRA versus t-butyl-RA in normal male rats; type: in vivo, rat; details: for body weight change / apparent toxicity: second study, 1 mmole/kg/day for 5 days, FIG. 6
Description: Two independent toxicity studies were carried out with the t-butyl-RA derivative. […] However, the difference in testes weights between the atRA and t-butyl-RA groups was not statistically significant due to rather large biological variability.
We next examined the acute toxicity of the t-butyl derivative as compared to the atRA derivative in two independent trails. In these experiments, normal male rats weighing approximately 250-300 grams were used. They were individually housed in cages and given Purina lab chow as well as water ad libitum. […] This is an extremely large dose, and represents at least 3,600 times the amount of the t-butyl derivative needed to support a physiological growth response in vitamin A-deficient rats. […] Another indication of toxicity is testes weight as illustrated in FIG. 7.

[3] = tested on: pregnant rats (embryos); details: female, Sprague Dawley, rat, in vivo, 18.5 embryonic day
Excerpt: Teratogenic activity of atRA is a serious drawback in its therapeutic potential. […] The results of this experiment illustrate that atRA is, indeed, teratogenic and that the t-butyl derivative shares this liability, but only when given at a dose of 10 times higher than that of atRA. Thus, there is a larger window of safety when using the t-butyl-RA derivative when compared to atRA.
In this experiment, 19 female rats were obtained from Sprague Dawley and were individually housed in cages and given purina chow as well as water ad libitum. After approximately two weeks of acclimation to the animal facility, the females were placed with normal males on the same diet, between 6:00 and 9:00 pm. The following morning, the females were checked for vaginal plugs indicating fertilization. Vaginal smears were then checked for sperm and when shown to be positive, the pregnant rat was placed in the study. At embryonic day 12.3 between 9:00 and 10:00 in the morning, the rats received the following treatments given as a bolus dose in oil orally. Four groups of rats received the vehicle; four received 0.1 mmole/kg (30 mg/kg) atRA in the oil vehicle; another group received an equal molar amount (35.7 mg/kg) of t-butyl-RA; and a final group received a ten-fold higher dose (357 mg/kg) of t-butyl-RA. The embryos were removed by cesarean section on day 18.5 and weighed as well as checked for cleft palette. […]

Question: For CC1=C(/C=C/C(C)=C/C=C/C(C)=C/C(=O)O)C(C)(C)CCC1 [atRA, all-trans-retinoic acid, reference compound], which “growth of vitamin A-deficient rats, comparison between atRA and its esters” value (“growth … comparison between atRA and its esters” below) [1] is on record?
Answer: Its value is “superior to that of the cholesterol ester-fed group”.

Question: How did the “growth of vitamin A-deficient rats compared to vehicle control” value [1] turn out when CC1=C(/C=C/C(C)=C/C=C/C(C)=C/C(=O)O[C@H]2CC[C@@]3(C)C(=CCC4C3CC[C@@]3(C)C4CC[C@@H]3[C@H](C)CCCC(C)C)C2)C(C)(C)CCC1 (stereo partly drawn) [cholesterol ester, all-trans-retinoic acid cholesterol ester] was run?
Answer: Its value is “significantly enhanced growth compared to vehicle control animals; also recorded: clearly much improved over the vehicle control”.

Question: What about the “growth … comparison between atRA and its esters” value [1] of the same compound?
Answer: Its value is “less effective”.

Question: What about the “in vivo activity relative to atRA (growth support)” value (“in vivo activity relative to atRA” for short) [1] of the same compound?
Answer: Its value is “less effective; also recorded: one-third”.

Question: Which “growth of vitamin A-deficient rats compared to vehicle control” value [1] does the source give for CC1=C(/C=C/C(C)=C/C=C/C(C)=C/C(=O)OC(C)(C)C(C)(C)O)C(C)(C)CCC1 [pinacol ester, all-trans-retinoic acid pinacol ester] here?
Answer: Its value is “significantly enhanced growth compared to vehicle control animals”.

Question: What about the “growth … comparison between atRA and its esters” value [1] of the same compound?
Answer: The value was “nearly equivalent to atRA”.

Question: And the “in vivo activity relative to atRA” value [1]?
Answer: The value was “nearly as active as atRA”.

Question: How did the “growth (weight change) of vitamin A-deficient rats compared to atRA” value [1] turn out when CC1=C(/C=C/C(C)=C/C=C/C(C)=C/C(=O)OC(C)(C)C)C(C)(C)CCC1 [t-butyl-RA, all-trans-retinoic acid tert-butyl ester] was run?
Answer: Its value is “did not differ significantly from that of the group fed an equal molar amount of atRA”.

Question: What about the “growth (weight change) of vitamin A-deficient rats compared to atRA” value ([1]; listed as t-butyl derivative) of the same compound?
Answer: Its value is “did not differ from that of atRA”.

Question: And the “growth response of vitamin A-deficient rats compared to atRA” value [1]?
Answer: Its value is “equivalent”.

Question: And the “growth response of vitamin A-deficient rats compared to atRA” value ([1]; listed as t-butyl derivative)?
Answer: Its value is “identical”.

Question: What about the “in vivo activity relative to atRA” value [1] of the same compound?
Answer: The value was “equal to atRA in potency and efficacy”.

Question: And the “in vivo activity relative to atRA” value ([1]; listed as t-butyl derivative)?
Answer: Its value is “as active as atRA”.

Question: And the “in vivo activity relative to atRA” value ([1]; listed as t-butyrate ester)?
Answer: Its value is “as active in vivo when given orally as is atRA”.

Question: What about the “non-toxic dose as multiple of the amount needed to support a physiological growth response” value ([2]; 1 mmole/kg/day (357 mg/kg/day) versus growth dose in vitamin A-deficient rats) of the same compound?
Answer: Its value is “at least 3,600 times”.

Question: What about the testes weight ([2]; 1 mmole/kg/day, FIG. 7, listed as t-butyl derivative) of the same compound?
Answer: Its testes weight is “no such indication; also recorded: similar”.

Question: And the body weight change ([2]; first study, 1 mmole/kg/day (300 mg/kg/day atRA, 357 mg/kg/day t-butyl-RA), 7 days, FIG. 5)?
Answer: The body weight change was “continued growth; also recorded: did not cause a weight loss”.

Question: What about the “other signs of toxicity” value ([2]; first study, 1 mmole/kg/day, 7 days, FIG. 5) of the same compound?
Answer: Its value is “no other externally obvious toxicity”.

Question: And the “body weight change / apparent toxicity” value [2]?
Answer: Its value is “no apparent toxicity”.

Question: What about the “body weight change / apparent toxicity” value ([2]; listed as t-butyl derivative) of the same compound?
Answer: The value was “normal growth”.

Question: And the “dose relative to atRA required to produce equivalent teratogenic effects” value [3]?
Answer: Its value is 10.

Question: What about the “times less teratogenic than atRA” value [3] of the same compound?
Answer: The value was “approximately 10 times”.
